From ChEMBL document CHEMBL1153245, “A profile of the in vitro anti-tumor activity of imidazolium-based ionic liquids” (2010)

Assays:
Type in all cases: functional
[1] = system: SN12C; assay: Anticancer activity against human SN12C cells after 48 hrs by sulforhodamine B assay; settings: Homo sapiens, SN12C, 48 h
[2] = system: NCI-H226; assay: Anticancer activity against human NCI-H226 cells after 48 hrs by sulforhodamine B assay; settings: Homo sapiens, NCI-H226, 48 h
[3] = system: COLO 205; assay: Anticancer activity against human COLO205 cells after 48 hrs by sulforhodamine B assay; settings: Homo sapiens, COLO 205, 48 h; for CC50: read-out: LC50 (the source's name)
[4] = system: PC-3; assay: Anticancer activity against human PC3 cells after 48 hrs by sulforhodamine B assay; settings: Homo sapiens, PC-3, 48 h; for CC50: read-out: LC50 (the source's name)
[5] = system: HCT-116; assay: Anticancer activity against human HCT116 cells after 48 hrs by sulforhodamine B assay; settings: Homo sapiens, HCT-116, 48 h; for CC50: read-out: LC50 (the source's name)
[6] = system: CCRF-CEM; assay: Anticancer activity against human CCRF-CEM cells after 48 hrs by sulforhodamine B assay
[7] = system: OVCAR-3; assay: Anticancer activity against human OVCAR-3 cells after 48 hrs by sulforhodamine B assay; settings: Homo sapiens, OVCAR-3, 48 h
[8] = system: U-251; assay: Anticancer activity against human U251 cells after 48 hrs by sulforhodamine B assay; settings: Homo sapiens, U-251, 48 h; for CC50: read-out: LC50 (the source's name)
[9] = system: UACC-62; assay: Anticancer activity against human UACC62 cells after 48 hrs by sulforhodamine B assay; settings: Homo sapiens, UACC-62, 48 h
[10] = system: OVCAR-8; assay: Anticancer activity against human OVCAR8 cells after 48 hrs by sulforhodamine B assay; settings: Homo sapiens, OVCAR-8, 48 h
[11] = system: SF-268; assay: Anticancer activity against human SF268 cells after 48 hrs by sulforhodamine B assay; settings: Homo sapiens, SF-268, 48 h; for CC50: read-out: LC50 (the source's name)
[12] = system: SW-620; assay: Anticancer activity against human SW620 cells after 48 hrs by sulforhodamine B assay
[13] = system: OVCAR-5; assay: Anticancer activity against human OVCAR5 cells after 48 hrs by sulforhodamine B assay; settings: Homo sapiens, OVCAR-5, 48 h; for CC50: read-out: LC50 (the source's name)
[14] = system: MDA-MB-468; assay: Anticancer activity against human MDA-MB-468 cells after 48 hrs by sulforhodamine B assay
[15] = system: SF-295; assay: Anticancer activity against human SF295 cells after 48 hrs by sulforhodamine B assay; settings: Homo sapiens, SF-295, 48 h; for CC50: read-out: LC50 (the source's name)
[16] = system: NCI-H460; assay: Anticancer activity against human NCI-H460 cells after 48 hrs by sulforhodamine B assay; settings: Homo sapiens, NCI-H460, 48 h
[17] = system: NCI-H23; assay: Anticancer activity against human NCI-H23 cells after 48 hrs by sulforhodamine B assay; settings: for CC50: read-out: LC50 (the source's name)
[18] = system: CAKI-1; assay: Anticancer activity against human Caki1 cells after 48 hrs by sulforhodamine B assay; settings: Homo sapiens, CAKI-1, 48 h
[19] = system: Malme-3M; assay: Anticancer activity against human MALME-3M cells after 48 hrs by sulforhodamine B assay
[20] = system: TK-10; assay: Anticancer activity against human TK10 cells after 48 hrs by sulforhodamine B assay; settings: Homo sapiens, TK-10, 48 h
[21] = system: MOLT-4; assay: Anticancer activity against human MOLT4 cells after 48 hrs by sulforhodamine B assay
[22] = system: MDA-MB-231; assay: Anticancer activity against human MDA-MB-231 cells after 48 hrs by sulforhodamine B assay; settings: for CC50: read-out: LC50 (the source's name)
[23] = system: SNB-75; assay: Anticancer activity against human SNB75 cells after 48 hrs by sulforhodamine B assay; settings: for CC50: read-out: LC50 (the source's name)
[24] = system: MCF7; assay: Anticancer activity against human MCF7 cells after 48 hrs by sulforhodamine B assay
[25] = system: A549; assay: Anticancer activity against human A549 cells after 48 hrs by sulforhodamine B assay; settings: Homo sapiens, A549, 48 h
[26] = system: KM12; assay: Anticancer activity against human KM12 cells after 48 hrs by sulforhodamine B assay; settings: for CC50: read-out: LC50 (the source's name)
[27] = system: T47D; assay: Anticancer activity against human T47D cells after 48 hrs by sulforhodamine B assay; settings: Homo sapiens, T47D, 48 h; for CC50: read-out: LC50 (the source's name)
[28] = system: HCC 2998; assay: Anticancer activity against human HCC2998 cells after 48 hrs by sulforhodamine B assay; settings: for CC50: read-out: LC50 (the source's name)
[29] = system: IGROV-1; assay: Anticancer activity against human IGROV1 cells after 48 hrs by sulforhodamine B assay; settings: IGROV-1, 48 h
[30] = system: HT-29; assay: Anticancer activity against human HT-29 cells after 48 hrs by sulforhodamine B assay; settings: for CC50: read-out: LC50 (the source's name)
[31] = system: SR; assay: Anticancer activity against human SR cells after 48 hrs by sulforhodamine B assay; settings: for CC50: read-out: LC50 (the source's name)
[32] = system: SF-539; assay: Anticancer activity against human SF539 cells after 48 hrs by sulforhodamine B assay; settings: Homo sapiens, SF-539, 48 h

CCCCCCCCCCCCCCCCCC[n+]1ccn(C)c1.[Cl-]
GI50 [1]: 679 nM
LC50 [1]: 4770 nM
GI50 [2]: 869 nM
LC50 [2]: 5990 nM
GI50 [3]: 285 nM
CC50 [3]: > 100000 nM
GI50 [4]: 212 nM
CC50 [4]: 2850 nM
GI50 [5]: 343 nM
CC50 [5]: > 100000 nM
GI50 ([6]; Homo sapiens, CCRF-CEM, 48 h): 127 nM
LC50 ([6]; Homo sapiens, CCRF-CEM, 48 h): 720 nM
GI50 [7]: 375 nM
LC50 (50% lethal concentration) [7]: 4010 nM
GI50 [8]: 372 nM
CC50 [8]: 3880 nM
GI50 [9]: 848 nM
LC50 [9]: 5070 nM
GI50 [10]: 998 nM
LC50 [10]: 7400 nM
GI50 [11]: 978 nM
CC50 [11]: 5880 nM
GI50 ([12]; Homo sapiens, SW-620, 48 h): 446 nM
LC50 ([12]; Homo sapiens, SW-620, 48 h): 4720 nM
GI50 [13]: 819 nM
CC50 [13]: 7890 nM
GI50 [14]: 66 nM
LC50 ([14]; Homo sapiens, MDA-MB-468, 48 h): 7250 nM
GI50 [15]: 332 nM
CC50 [15]: 5590 nM
GI50 [16]: 405 nM
LC50 [16]: 3920 nM
GI50 ([17]; Homo sapiens, NCI-H23, 48 h): 392 nM
CC50 ([17]; Homo sapiens, NCI-H23, 48 h): 7720 nM
GI50 [18]: 429 nM
LC50 [18]: 7450 nM
GI50 [19]: 368 nM
LC50 (concentration killing 50% of cells) ([19]; Homo sapiens, Malme-3M, 48 h): 5820 nM
GI50 [20]: 244 nM
LC50 [20]: 2770 nM
GI50 [21]: 189 nM
LC50 [21]: 2160 nM
GI50 [22]: 449 nM
CC50 ([22]; Homo sapiens, MDA-MB-231, 48 h): 4860 nM
GI50 [23]: 473 nM
CC50 ([23]; Homo sapiens, SNB-75, 48 h): 7400 nM
GI50 [24]: 356 nM
LC50 (50% cell kill) ([24]; Homo sapiens, MCF7, 48 h): 3780 nM
GI50 [25]: 639 nM
LC50 (concentration killing 50% of cells) [25]: 10000 nM
GI50 ([26]; Homo sapiens, KM12, 48 h): 275 nM
CC50 ([26]; Homo sapiens, KM12, 48 h): 2960 nM
GI50 [27]: 546 nM
CC50 [27]: > 100000 nM
GI50 ([28]; Homo sapiens, HCC 2998, 48 h): 296 nM
CC50 ([28]; Homo sapiens, HCC 2998, 48 h): 7770 nM
GI50 [29]: 175 nM
CC50 ([29]; read-out: LC50 (the source's name)): > 100000 nM
GI50 ([30]; Homo sapiens, HT-29, 48 h): 315 nM
CC50 [30]: 5520 nM
GI50 [31]: 154 nM
CC50 [31]: 3790 nM

CCCCCCCCCCCC[n+]1ccn(C)c1.[Cl-]
GI50 [1]: 2760 nM
GI50 [2]: 3550 nM
GI50 [3]: 2620 nM
CC50 [3]: > 100000 nM
GI50 [4]: 1820 nM
CC50 [4]: > 100000 nM
GI50 [5]: 3590 nM
CC50 [5]: > 100000 nM
GI50 [6]: 540 nM
GI50 [7]: 2840 nM
GI50 [8]: 2150 nM
CC50 [8]: > 100000 nM
GI50 [9]: 3120 nM
GI50 [10]: 2180 nM
GI50 [11]: 4680 nM
CC50 [11]: > 100000 nM
GI50 [12]: 2970 nM
GI50 [13]: 3750 nM
CC50 [13]: > 100000 nM
GI50 ([14]; Homo sapiens, MDA-MB-468, 48 h): 384 nM
GI50 [15]: 2360 nM
CC50 [15]: > 100000 nM
GI50 [16]: 3390 nM
GI50 [17]: 885 nM
CC50 ([17]; Homo sapiens, NCI-H23, 48 h): > 100000 nM
GI50 [18]: 1790 nM
GI50 ([19]; Homo sapiens, Malme-3M, 48 h): 4960 nM
GI50 [20]: 1920 nM
GI50 ([21]; Homo sapiens, MOLT-4, 48 h): 2900 nM
GI50 ([22]; Homo sapiens, MDA-MB-231, 48 h): 3390 nM
CC50 ([22]; Homo sapiens, MDA-MB-231, 48 h): 63600 nM
GI50 ([23]; Homo sapiens, SNB-75, 48 h): 2740 nM
CC50 ([23]; Homo sapiens, SNB-75, 48 h): 56800 nM
GI50 ([24]; Homo sapiens, MCF7, 48 h): 1690 nM
GI50 [25]: 5920 nM
GI50 ([26]; Homo sapiens, KM12, 48 h): 2090 nM
CC50 [26]: 85800 nM
GI50 [32]: 2720 nM
GI50 [27]: 4290 nM
CC50 [27]: > 100000 nM
GI50 [28]: 1890 nM
CC50 ([28]; Homo sapiens, HCC 2998, 48 h): > 100000 nM
GI50 ([30]; Homo sapiens, HT-29, 48 h): 2600 nM
CC50 ([30]; Homo sapiens, HT-29, 48 h): > 100000 nM
GI50 ([31]; Homo sapiens, SR, 48 h): 597 nM
CC50 ([31]; Homo sapiens, SR, 48 h): 97600 nM
